Source: US20240390317A1, “COMBINATION TREATMENT AND/OR PREVENTION OF CARDIAC DISEASES IN NON-HUMAN MAMMALS COMPRISING ONE OR MORE SGLT-2 INHIBITORS AND PIMOBENDAN AND/OR TELMISARTAN” (BOEHRINGER INGELHEIM VETMEDICA GMBH, priority 2023, published 2024)

Assays:
[1] = tested on: canine atrial fibrillation model; details: cited from earlier work
[2] = tested on: mitral regurgitation-induced myocardial dysfunction; details: cited from earlier work
[3] = tested on: adults with heart failure and reduced or preserved ejection fraction, with and without diabetes; details: cited from earlier work
[4] = tested on: non-diabetic heart failure; details: by enhancing myocardial energetics; cited from earlier work
[5] = tested on: Dogs With Mitral Valve Disease (MVD); assay: Example 16 exploratory clinical field trial, velagliflozin plus pimobendan vs pimobendan; assay type: in vivo, dog
Protocol: The described study is a prospective, baseline controlled, unblinded, open-label, multi-site exploratory clinical field trial. Client owned dogs diagnosed with MVD are randomized at different sites to either a pimobendan or a velagliflozin plus pimobendan treatment group. Eight dogs could be successfully enrolled. […] The clinical field trial is further ongoing.
The dogs that enter the study are evaluated regularly including a full physical examination including bodyweight, blood pressure, auscultation of the cardiovascular system, thoracic radiographs to assess heart size, pulmonary edema and congestion, standard echocardiography, ECG, blood and urine evaluation.
The cardiovascular history is evaluated assessing the date of MVD diagnosis and whether there is a history of heart failure. An owner questionnaire is compiled on a regular basis during the study to provide an overview on the overall condition of the dogs, the respiratory rate per minute at resting and the exercise tolerance during the last seven days of treatment.
The dogs included must be diagnosed with MVD stage B2 or stage C via physical examination and echocardiography. Variables of interest are all clinical parameters evaluated in addition to laboratory values, blood pressure, number of events (death or hospitalization for heart failure or euthanasia), the time-to-event duration, the adjustment of diuretic treatment, owner questionnaire data, x-ray results and overall disease progression (requiring additional, prohibited cardiac treatment).
During the ongoing field trial three dogs are receiving a combined velagliflozin (0.5 mg/kg bodyweight orally once daily) and pimobendan treatment (daily dose of 0.5 mg/kg bodyweight orally divided into two portions that are not necessarily equal).
During the ongoing field trial four dogs are receiving a pimobendan only treatment (daily dose of 0.5 mg/kg bodyweight orally divided into two portions that are not necessarily equal).

[6] = tested on: dogs with a moderate degree of tachypacing-induced heart-failure [dilated cardiomyopathy (DCM) model]; assay: Example 17 laboratory study (DCM model); assay type: in vivo, beagle dogs; details: for creatinine levels / enhancements of diastolic function and performance (i.e., IVRT, E, E′-ave) / enhancements of values indicative of systolic function and performance (i.e., EF, FAS, Simpson EF, s′ wave, LVOT VTI, SV, CO, or SAX Strain) / urine glucose: tachypacing DCM model, three-month dosing
Protocol: A laboratory study is conducted to evaluate the effects of the SGLT2 inhibitor Velagliflozin with Pimobendan compared to Pimobendan alone and Velagliflozin alone in dogs with a moderate degree of tachypacing-induced heart-failure [dilated cardiomyopathy (DCM) model]. The study involves 12 beagle dogs, divided into three treatment groups, each containing four dogs, in two dosing phases (totaling eight dogs per group). The treatment groups are Pimobendan, Velagliflozin, and a combination of both (Pimobendan+Velagliflozin).
The dogs are implanted with a pacing generator in the right ventricle (Abbott-Johnson K et al., 2021) and subjected to two rounds of dosing for three months each. The heart failure is induced to a moderate degree (EF=˜40-45%) before the start of each dosing round, with the pacing rate maintained throughout the three-month dosing period. After each round, a washout period of about 21-28 days is given before the next round of dosing begins.
Various data are collected throughout the study, including 6-minute walk test, blood and urine analysis, and echocardiography data. The dogs undergo an anesthetized recovery procedure at the end of each three-month round, where systemic hemodynamics are recorded. A single dose of dobutamine is also administered to measure functional reserve at the end of each 3-month period.

## Cc1ccc([C@@H]2O[C@H](CO)[C@@H](O)[C@H](O)[C@H]2O)cc1Cc1ccc(-c2ccc(F)cc2)s1 [canagliflozin, Canagliflozin]
[1]
  atrial remodeling: suppresses

## CCOc1ccc(Cc2cc([C@@H]3O[C@H](CO)[C@@H](O)[C@H](O)[C@H]3O)ccc2Cl)cc1 [dapagliflozin, Dapagliflozin]
[2]
  arrhythmogenesis: mitigates
  cardiac hemodynamics: improves

## OC[C@H]1O[C@@H](c2ccc(Cl)c(Cc3ccc(O[C@H]4CCOC4)cc3)c2)[C@H](O)[C@@H](O)[C@@H]1O [empagliflozin, Empagliflozin]
[3]
  risk for the composite endpoint of cardiovascular death or hospitalization due to heart failure: reduced
[4]
  adverse left ventricular remodeling: ameliorates

## COc1ccc(-c2nc3cc(C4=NNC(=O)CC4C)ccc3[nH]2)cc1 (stereo not shown) [pimobendan, 4,5-dihydro-6-[2-(4-methoxyphenyl)-1H-benzimidazol-5-yl]-5-methyl-3(2H)-pyridazinone]
[5]; pimobendan only (0.5 mg/kg/day), first dog, Day 88, before: seven, progresses from moderate to severe disease state
  MINE score: eight
[5]; pimobendan only, first dog
  other parameters measured (i.e. heart murmur): mainly unchanged
[5]; pimobendan only, fourth dog, Day 42, Screening 1.88
  Echo Parameter LA/Ao: 1.61
[5]; pimobendan only, fourth dog, Day 42, Screening: eight
  MINE score: six
[5]; pimobendan only, fourth dog, Day 42, Screening: neutral
  overall condition (owner score): good
[5]; pimobendan only, fourth dog, Day 42, Screening: very poor
  exercise tolerance in the last 7 days (owner score): good
[5]; pimobendan only, second dog
  overall condition and exercise tolerance in the last 7 days (owner report): improvement
[5]; pimobendan only, second dog, Day 55, Screening 2.14
  Echo-Parameter LA/Ao: 1.96
[5]; pimobendan only, second dog, Day 55, stable, severely diseased
  MINE score (echocardiographic parameters): eight
[5]; pimobendan only, third dog, Day 48, Screening 1.60
  Echo-Parameter LA/Ao: 1.53
[5]; pimobendan only, third dog, Day 48, Screening: neutral
  overall condition of the owner score: good
[6]; for three months
  functional support with enhanced systolic and diastolic performance: clear and robust functional support
[6]
  creatinine levels: does not affect
  enhancements of diastolic function and performance (i.e., IVRT, E, E′-ave): ~20%
  enhancements of values indicative of systolic function and performance (i.e., EF, FAS, Simpson EF, s′ wave, LVOT VTI, SV, CO, or SAX Strain): ~30%
  urine glucose: does not affect

## N#Cc1ccc([C@@H]2O[C@H](CO)[C@@H](O)[C@H](O)[C@H]2O)cc1Cc1ccc(C2CC2)cc1 [velagliflozin, Velagliflozin]
[6]
  creatinine levels: lower
  enhancements of diastolic function and performance (i.e., IVRT, E, E′-ave): little-to-no support
  enhancements of values indicative of systolic function and performance (i.e., EF, FAS, Simpson EF, s′ wave, LVOT VTI, SV, CO, or SAX Strain): little-to-no support
  urine glucose: elevated
